Test results as given in patent US20120129878A1, “TABLET” (Takeda Pharmaceutical Company Limited, priority 2009, published 2012).

Target: dipeptidyl peptidase (DPP-IV) (Homo sapiens, UniProt P27487)
Assay: DPP-IV inhibitory activity (statement only)
Type: biochemical
Conditions: metabolite of compound (A); statement without data

Sequence of dipeptidyl peptidase (DPP-IV) (P27487 whole entry, species assumed): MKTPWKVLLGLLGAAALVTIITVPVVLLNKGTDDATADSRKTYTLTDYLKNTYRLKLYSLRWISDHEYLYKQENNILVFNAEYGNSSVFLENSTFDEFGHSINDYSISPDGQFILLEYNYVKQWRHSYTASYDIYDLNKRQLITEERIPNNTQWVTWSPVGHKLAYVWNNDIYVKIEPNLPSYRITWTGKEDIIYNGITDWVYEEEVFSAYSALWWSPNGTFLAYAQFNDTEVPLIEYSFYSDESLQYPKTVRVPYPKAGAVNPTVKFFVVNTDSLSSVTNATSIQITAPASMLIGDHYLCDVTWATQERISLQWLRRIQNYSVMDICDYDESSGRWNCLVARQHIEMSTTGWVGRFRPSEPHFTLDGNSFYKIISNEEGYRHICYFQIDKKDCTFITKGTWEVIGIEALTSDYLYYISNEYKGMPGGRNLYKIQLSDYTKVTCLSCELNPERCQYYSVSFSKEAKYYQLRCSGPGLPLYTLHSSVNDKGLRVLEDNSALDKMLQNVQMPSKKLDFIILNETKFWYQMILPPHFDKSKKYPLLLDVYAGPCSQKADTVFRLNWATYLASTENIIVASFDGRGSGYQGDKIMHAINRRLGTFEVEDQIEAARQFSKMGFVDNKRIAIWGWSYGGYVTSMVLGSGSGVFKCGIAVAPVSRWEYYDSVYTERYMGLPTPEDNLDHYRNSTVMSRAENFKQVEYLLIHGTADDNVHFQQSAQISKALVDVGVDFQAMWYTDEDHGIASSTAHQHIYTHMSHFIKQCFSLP

N#Cc1ccc(F)cc1Cn1c(N2CCC[C@@H](N)C2)cc(=O)[nH]c1=O
DPP-IV inhibitory activity: has a DPP-IV inhibitory activity
